# Reference: US20080318925A1 (ASTRAZENECA AB, priority 2007, published 2008)
# Biological target: T1, GABAA2 receptors (α2, β3, γ3 receptor subunits transfected into Sf9 cells) (Homo sapiens, UniProt P47869+Q99928)
# T1 construct: host or cells: Sf9 cells (membranes)
# T1 sequence (P47869 29-451): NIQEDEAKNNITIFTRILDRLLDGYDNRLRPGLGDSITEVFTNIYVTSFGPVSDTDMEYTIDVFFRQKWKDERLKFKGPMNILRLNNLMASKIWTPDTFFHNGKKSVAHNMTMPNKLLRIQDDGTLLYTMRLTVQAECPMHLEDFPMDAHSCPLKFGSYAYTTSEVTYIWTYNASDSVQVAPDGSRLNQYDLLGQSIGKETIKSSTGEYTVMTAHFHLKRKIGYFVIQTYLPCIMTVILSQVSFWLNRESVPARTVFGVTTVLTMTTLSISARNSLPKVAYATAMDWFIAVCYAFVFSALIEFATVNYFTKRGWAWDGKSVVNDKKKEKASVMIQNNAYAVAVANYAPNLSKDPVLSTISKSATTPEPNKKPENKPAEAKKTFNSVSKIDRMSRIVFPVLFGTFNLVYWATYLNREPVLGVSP
# T1 sequence (P28472 26-473 partner): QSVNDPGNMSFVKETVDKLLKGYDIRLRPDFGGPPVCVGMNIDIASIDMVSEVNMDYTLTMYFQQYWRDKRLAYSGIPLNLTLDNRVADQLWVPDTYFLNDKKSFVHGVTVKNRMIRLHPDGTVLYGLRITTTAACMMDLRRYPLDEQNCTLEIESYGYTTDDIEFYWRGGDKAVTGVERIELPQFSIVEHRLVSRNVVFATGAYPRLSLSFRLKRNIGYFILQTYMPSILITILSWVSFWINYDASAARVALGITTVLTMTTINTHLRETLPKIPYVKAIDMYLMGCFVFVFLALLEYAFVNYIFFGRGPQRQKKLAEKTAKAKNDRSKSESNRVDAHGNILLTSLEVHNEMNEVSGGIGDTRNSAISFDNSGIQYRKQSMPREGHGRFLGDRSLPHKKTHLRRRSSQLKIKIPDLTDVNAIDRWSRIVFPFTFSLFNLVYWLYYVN
# T1 sequence (Q99928 18-467): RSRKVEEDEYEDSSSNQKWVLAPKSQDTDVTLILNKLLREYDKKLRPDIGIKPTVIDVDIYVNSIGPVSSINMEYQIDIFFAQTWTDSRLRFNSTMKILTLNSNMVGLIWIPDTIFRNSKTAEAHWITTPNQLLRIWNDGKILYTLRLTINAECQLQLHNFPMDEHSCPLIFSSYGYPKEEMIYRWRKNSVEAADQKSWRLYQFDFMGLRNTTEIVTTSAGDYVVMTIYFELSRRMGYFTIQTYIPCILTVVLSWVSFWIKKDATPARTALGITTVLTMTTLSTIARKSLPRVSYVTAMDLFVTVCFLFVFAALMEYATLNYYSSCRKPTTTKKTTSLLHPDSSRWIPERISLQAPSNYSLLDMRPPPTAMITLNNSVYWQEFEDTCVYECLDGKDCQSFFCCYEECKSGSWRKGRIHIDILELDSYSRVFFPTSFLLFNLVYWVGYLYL
# Experiment: GABAA2 binding method ([3H]-flunitrazepam displacement)
# Conditions: [3H]-flunitrazepam ~2 nM, Sf9 membranes, 1 hr at 4° C.
# Method: In some embodiments, the binding test was directed to a subtype of GABAA receptors, such as GABAA1 receptors (i.e., those containing the α1 subunit), GABAA2 receptors (i.e., those containing the α2 subunit), GABAA3 receptors (i.e., those containing the α3 subunit) and GABAA5 receptors (i.e., those containing the α5 subunit).
# • Assay and Wash Buffer: 50 mM Tris-Citrate, 200 mM NaCl, pH 7.8 Compounds at 10 mM in DMSO: Put 75 μl in column 1 of compound plate.
# Flumazenil, 10 mM (for NSB)
# [^3H]-Flunitrazepam (Cat #NET567): Prepare 10× stock=20 nM, [F} in assay=˜2 nM
# 1. […] Add 5 ul of 30 uM flumazenil to wells 12 D-E for 50% control wells.
# 2. Spot 2 μl of compound dilutions into dry plate (Automation Program 3). Manually spot 2 μl 10 mM flumazenil into wells 12 F-H for nonspecific control.
# 3. Make 1:100 dilution in assay buffer (2 μl into 200 μl) and dispense 25 μl compound into assay plates (Automation Program 4).
# 4. Dispense 200 μl membranes into assay plate (Automation Program 5).
# 5. Add 25 μl [^3H]-Flunitrazepam (Automation Program 6). Incubate for 1 hr at 4° C.
# 6. Collect membranes on a cell harvester onto GF/B filter plates (pre-wet with dH2O and wash 5× 400 μl/well, with cold assay buffer. (First 3 washes are considered hot; last two are cold.)
# 7. Dry plates for 2-3 hours at RT.
# 8. Add 40 μl Microscint 40/well (Automation Program 7); seal plates. Count on a TopCount.
# Data is analyzed by calculating percent of control, IC50, and Ki in an XLfit template. The following formula is used in the templates: […]
row,SMILES,Ki
1,CCCNC(=O)c1nnc2c(-c3cccc(F)c3F)cccc2c1N,0.558 nM
2,CCCNC(=O)c1nnc2c(-c3ccc(OC)nc3OC)cccc2c1N,0.56 nM
3,CCCNC(=O)c1nnc2c(-c3ccc(F)cc3OC)c(F)ccc2c1N,0.565 nM
4,CCCNC(=O)c1nnc2c(-c3ccc(OC)c(OC)c3OC)c(F)ccc2c1N,0.6 nM
5,CCCNC(=O)c1nnc2c(-c3ccc(OC)cc3F)c(F)ccc2c1N,0.613 nM
6,CCCNC(=O)c1nnc2c(-c3cccc(C)c3C)c(F)ccc2c1N,0.615 nM
7,CCCNC(=O)c1nnc2c(-c3ccc(OC)cc3C(F)(F)F)c(F)ccc2c1N,0.624 nM
8,COc1cccc(F)c1-c1cccc2c(N)c(C(=O)NC3CC3)nnc12,0.698 nM
9,CCCNC(=O)c1nnc2c(-c3cc(Cl)ccc3Cl)cccc2c1N,0.71 nM
10,CCCNC(=O)c1nnc2c(-c3cc(F)ccc3C)c(F)ccc2c1N,0.735 nM
11,CCCNC(=O)c1nnc2c(-c3cc(C)ccc3F)cccc2c1N,0.852 nM
12,CCCNC(=O)c1nnc2c(-c3cnc(OC)nc3OC)c(F)ccc2c1N,0.918 nM
13,CCCNC(=O)c1nnc2c(-c3cc(C)ccc3OC)c(F)ccc2c1N,0.937 nM
14,CCCNC(=O)c1nnc2c(-c3cccc(OC)c3F)c(F)ccc2c1N,0.941 nM
15,CCCNC(=O)c1nnc2c(-c3cc(F)ccc3OC)c(F)ccc2c1N,0.98 nM
16,CCCNC(=O)c1nnc2c(-c3cc(F)ccc3F)cccc2c1N,0.996 nM
17,CCCNC(=O)c1nnc2c(-c3ccccc3)c(F)ccc2c1N,1 nM
18,COc1ccc(-c2cccc3c(N)c(C(=O)NC4CC4)nnc23)c(OC)n1,1 nM
19,CCCNC(=O)c1nnc2c(-c3ccc(F)cc3OCC)c(F)ccc2c1N,1.03 nM
20,CCCNC(=O)c1nnc2c(-c3cc(Cl)ccc3OC)cccc2c1N,1.11 nM
21,CCCNC(=O)c1nnc2c(-c3cccnc3F)cccc2c1N,1.13 nM
22,CCCNC(=O)c1nnc2c(-c3cccc(C#N)c3)cccc2c1N,1.18 nM
23,CCCNC(=O)c1nnc2c(-c3cc(OC)ccc3Cl)c(F)ccc2c1N,1.25 nM

row,SMILES,Ki
1,CCCNC(=O)c1nnc2c(-c3cc(C)ccc3C)c(F)ccc2c1N,1.31 nM
2,CCCNC(=O)c1nnc2c(-c3cc(Cl)ccc3Cl)c(F)ccc2c1N,1.34 nM
3,CCCNC(=O)c1nnc2c(-c3cc(C(F)(F)F)ccc3Cl)cccc2c1N,1.36 nM
4,CCCNC(=O)c1nnc2c(-c3cc(F)c(OC)cc3F)cccc2c1N,1.49 nM
5,CCCNC(=O)c1nnc2c(-c3ccncc3)cccc2c1N,1.67 nM
6,CCCNC(=O)c1nnc2c(-c3ccc(C)nc3F)cccc2c1N,1.67 nM
7,CCCNC(=O)c1nnc2c(-c3cnccc3C)cccc2c1N,1.68 nM
8,CCCNC(=O)c1nnc2c(-c3ccc(F)cc3F)cccc2c1N,1.72 nM
9,CCCNC(=O)c1nnc2c(-c3cc(OC)ccc3F)cccc2c1N,1.73 nM
10,CCCNC(=O)c1nnc2c(-c3cccc(Cl)c3Cl)cccc2c1N,1.82 nM
11,CCCCNC(=O)c1nnc2c(-c3cnccc3OC)cccc2c1N,1.84 nM
12,COc1ccc(-c2cccc3c(N)c(C(=O)NC4CC4)nnc23)c(OC)c1,2.07 nM
13,CCCNC(=O)c1nnc2c(-c3cccnc3OC)cccc2c1N,2.1 nM
14,Nc1c(C(=O)NCC2CC2)nnc2c(-c3ccccc3)cccc12,18.6 nM
15,CCCNC(=O)c1nnc2c(-c3ccccn3)cccc2c1N,19.4 nM
16,CCCNC(=O)c1nnc2c(-c3cnc(OC)nc3)cccc2c1N,19.5 nM
17,CCCNC(=O)c1nnc2c(-c3ccc(F)c(F)c3)cccc2c1N,20 nM
18,CCCNC(=O)c1nnc2c(-c3ccc(OC)c(F)c3)cccc2c1N,20.2 nM
19,CCCNC(=O)c1nnc2c(-c3cnccn3)cccc2c1N,20.4 nM
20,CCCNC(=O)c1nnc2c(-c3cc(Cl)cc(Cl)c3)cccc2c1N,22 nM
21,CCCNC(=O)c1nnc2c(-c3cnc(OC)c(F)c3)cccc2c1N,22.1 nM
22,CCCNC(=O)c1nnc2c(-c3cnc(OC)c(Cl)c3)cccc2c1N,25.4 nM
23,CCCNC(=O)c1nnc2c(-c3ccc(N(C)C)cc3)cccc2c1N,26.6 nM

row,SMILES,Ki
1,CCCNC(=O)c1nnc2c(-c3ccc(C)cc3)cccc2c1N,29 nM
2,CCCNC(=O)c1nnc2c(-c3ccc4[nH]ccc4c3)cccc2c1N,35 nM
3,CNC(=O)c1nnc2c(-c3cc(C)ccc3OC)cccc2c1N,35.8 nM
4,CCCNC(=O)c1nnc2c(-c3cc(C)c(OC)c(C)c3)cccc2c1N,35.8 nM
5,CCCNC(=O)c1nnc2c(-c3ccc(Cl)cc3)cccc2c1N,37.2 nM
6,CCCNC(=O)c1nnc2c(-c3ccc4ccccc4c3)cccc2c1N,43.3 nM
7,CCCNC(=O)c1nnc2c(-c3cc(F)ccc3F)c(F)ccc2c1N,45.8 nM
8,CCCNC(=O)c1nnc2c(-c3cccc(OC(F)(F)F)c3)cccc2c1N,47.8 nM
9,CCCNC(=O)c1nnc2c(-c3cccc(C(=O)O)c3)cccc2c1N,53.8 nM
10,CCCNC(=O)c1nnc2c(-c3cc(OC)c(OC)c(OC)c3)cccc2c1N,56.5 nM
11,CCCNC(=O)c1nnc2c(-c3ccccc3)c(OC)ccc2c1N,91.4 nM
12,CCCNC(=O)c1nnc2c(-c3cc(C(F)(F)F)cc(C(F)(F)F)c3)cccc2c1N,356 nM
13,CNC(=O)c1nnc2c(-c3cnc(OC)nc3OC)cccc2c1N,514 nM
14,CCCNC(=O)c1nnc2c(-c3c(OC)cccc3OC)cccc2c1N,624 nM
15,CCNC(=O)c1nnc2c(-c3cnc(OC)c(F)c3)cccc2c1N,9 nM
16,COc1ccc(F)cc1-c1cccc2c(N)c(C(=O)NC3CC3)nnc12,8.22 nM
17,COc1ccncc1-c1cccc2c(N)c(C(=O)NC3CC3)nnc12,0.785 nM
18,COc1ncccc1-c1cccc2c(N)c(C(=O)NC3CC3)nnc12,0.501 nM
19,COc1ccc(-c2cccc3c(N)c(C(=O)NC4CCC4)nnc23)c(OC)c1,0.927 nM
20,Cc1ccc(-c2cccc3c(N)c(C(=O)NC4CC4)nnc23)cn1,4.02 nM
21,CCNC(=O)c1nnc2c(-c3ccc(OC)cc3OC)cccc2c1N,4.54 nM
